Measurements reported in patent publication US20070261453A1, “Plant Nutrient Based on O,P-Ethylene(Bis)Hydroxyphenyl Glycines” (priority 2004, published 2007).

Test system: Soybean (cv.Oshumi) plants
Assay: Soybean iron chlorosis experiment in aerated nutrient solution with Fe chelate treatments (plant weight, iron content, SPAD index)
Type: in vivo
Settings: for Iron content in parts of the plants: leaf / Iron content in parts of the plants: per number of leaves / Iron content in parts of the plants: root: dry digestion and atomic absorption, sampled after 14 days; for Iron content in parts of the plants: leaf / Iron content in parts of the plants: per number of leaves / Iron content in parts of the plants: root / Dry leaf weight / Dry root weight / Fresh leaf weight / Fresh plant weight / Fresh root weight: mean of 4 replicates; for Dry leaf weight / Dry root weight / Fresh leaf weight / Fresh plant weight / Fresh root weight: iron-chlorotic soybean plants, sampled 14 days after start of Fe treatment; for Spad index (second leaf): Minolta SPAD 502, means of 4 replicates
Protocol: Soybean (cv.Oshumi) plants have been used in the biological experiment. Plants were obtained from soybean seeds that were germinated in standard seed growing procedure in closed sterilized trays. The seeds were placed in the trays on a cellulose paper soaked with 50 milliliters of distilled water and with another paper placed over them. 30 ml distilled water and 20 ml CaSO4 1 mM were added. The trays were placed in a thermostatized stove, without light, at […] for 3 days. After this time the seedlings of similar development were placed on a holed plate floating over containers full of diluted nutrient solution and EDTA for 7 days. Nutrient solutions (without iron) were a mixture of: macronutrients: 1 mM Ca(NO3)2·4H2O, 0.9 mM KNO3, 0.3 mM MgSO4, 0.1 mM KH2PO4; cationic micronutrients: 2.5 μM MnSO4, 1 μM CuSO4, 10 μM ZnSO4, 1 μM NiCl2, 1 μM CoSO4, 115.5 μM EDTANa2 (100 μM in excess to buffer micronutrients activities), 231 μM KOH; anionic micronutrients: 35 μM NaCl, 10 μM H3BO3, 0.05 μM Na2MoO4. The pH was buffered at 7.5 with 0.1 mM HEPES (N-2-Hydroxyethylpiperazine-N′-2-ethanesulfonic acid), 0.05mM KOH and 2 g of CaCO3 per pot. Later, plants were subjected to a stressing procedure that consisted in putting them in five pails that contained 10 | each one of nutrient solution without iron chelate. […] After 6 days, the stems of two plants were wrapped together with foam and placed in 2 | polyethylene vessels (3 holes per lid, 2 plants per pot). The pots were completely covered with black plastic to avoid the incidence of the light. The vessels contained 2 | of continuously aerated nutrient solution containing the Fe treatments. Nutrient solution consisted of macronutrients and anionic micronutrients as before and cationic micronutrients: MnSO4 (1 μM), CuSO4 (0.5 μM), ZnSO4 (0.5 μM), NiCl2 (0.1 μM) and CoSO4 (0.1 μM). Water was added every two days and the solution was renewed every week. Plants were sampled 14 days after. Roots and leaves were separated and washed first with Tween® 80 (polyoxyethylene sorbitan monooleate) in 0.1 M HCl for 30 seconds, and then with abundant distilled water, after that they were weighted and dried. Micronutrientes were determined in leaves and in roots after dry digestion procedure and atomic absorption. During the experiment SPAD readings were frequently taken using the Minolta SPAD 502 chlorophyll meter, for all the leaves.
Seven different treatments were applied: • Comparative Example 1: No iron added. • Comparative Example 2: Fe-o,o-EDDHA 5 μM • Comparative Example 3: Fe-o,o-EDDHA 5 μM+Fe-o,p-EDDHA 1 μM. • Comparative Example 4: Fe-o,o-EDDHA 5 μM+Fe-o,p-EDDHA 2.5 μM. • Comparative Example 5: Fe-o,o-EDDHA 10 μM • Example 1: Fe-o,p-EDDHA 5 μM. • Example 2: Fe-o,o-EDDHA 5 μM+Fe-o,p-EDDHA 5 μM.
Four replications were prepared for each treatment.

[1] = listed as Comparative Example 2

| SMILES | Iron content in parts of the plants: leaf [μg Fe/g dry leave] | Iron content in parts of the plants: per number of leaves | Iron content in parts of the plants: root [μg Fe/g dry root] | Dry leaf weight [g] | Dry root weight [g] | Fresh leaf weight [g] | Fresh plant weight [g] | Fresh root weight [g] | Spad index (second leaf) (time 0 days) | Spad index (second leaf) (time 2 days) | Spad index (second leaf) (time 4 days) | Spad index (second leaf) (time 7 days) | Spad index (second leaf) (time 9 days) | Spad index (second leaf) (time 11 days) | other results |
| --- | --- | --- | --- | --- | --- | --- | --- | --- | --- | --- | --- | --- | --- | --- | --- |
| O=C([O-])C(NCCNC(C(=O)[O-])c1ccccc1[O-])c1ccccc1[O-].[Fe+3] (single isomer, unassigned) [Comp. Example 5, Fe-o,o-EDDHA] | 74.87 | 55.15 μg Fe/number of leaves | 77.22 | 0.781 | 0.425 | 4.736 | 15.862 | 7.316 | 16.6 | 15.7 | 15.0 | 18.2 | 19.7 | 19.0 | – |
| O=C([O-])C(NCCNC(C(=O)[O-])c1ccccc1[O-])c1ccccc1[O-].[Fe+3] (single isomer, unassigned) [Comp. Example 2, Fe-o,o-EDDHA] | – | – | – | 0.321 | 0.282 | 1.257 | 6.781 | 3.818 | – | – | – | – | – | – | Iron content in parts of the plants: leaf [1]: 62.30 μg Fe/g dry leave; Iron content in parts of the plants: per number of leaves [1]: 19.82 μg Fe/number of leaves; Iron content in parts of the plants: root [1]: 90.32 μg Fe/g dry root; Spad index (second leaf) (time 0 days, listed as C2): 12.7; Spad index (second leaf) (time 2 days, listed as C2): 10.1; Spad index (second leaf) (time 4 days, listed as C2): 9.1; Spad index (second leaf) (time 7 days, listed as C2): 9.5; Spad index (second leaf) (time 9 days, listed as C2): 9.2; Spad index (second leaf) (time 11 days, listed as C2): 8.2 |
| O=C([O-])C(NCCNC(C(=O)[O-])c1ccccc1[O-])c1ccc(O)cc1.[Fe+3] (stereo not drawn) [Example 1, Fe-o,p-EDDHA] | 80.98 | 91.91 μg Fe/number of leaves | 128.48 | 1.136 | 0.595 | 6.282 | 21.186 | 8.933 | 14.7 | 14.0 | 18.0 | 21.4 | 13.9 | 24.9 | Course of SPAD values compared with Comparative Examples (in words) (Example 1 vs Comparative Examples 1 to 3, Example 2 vs Comparative Examples 4 and 5): raise considerably steeper; Weight of the plants compared with Comparative Examples (in words) (Example 1 vs Comparative Examples 1 to 3, Example 2 vs Comparative Examples 4 and 5, Table 3): considerable raise of weight of the plants; Iron content in parts of the plants compared with Comparative Examples (in words) (Example 1 vs Comparative Examples 1 to 3, Example 2 vs Comparative Examples 4 and 5, Table 4): increase in the iron content |
